Results published in US20210275516A1, “LACTATE ENHANCING COMPOUNDS AND USES THEREOF” (ECOLE POLYTECHNIQUE FEDERALE DE LAUSANNE (EPFL), priority 2018, published 2021).

Tests used:
[1] = test system: G93A SOD1 mouse model of ALS; assay: SOD1 G93A mouse ALS model - grip test; format: in vivo; settings: vs vehicle
Protocol: (§1) For pharmacodynamics (FIG. 4) and cognition (FIG. 6) experiments, adult male C57Bl/6J wild-type mice weighting 18-28 g (8 weeks of age) were used (Charles River). For ALS mouse models (FIG. 5), G93A SOD1 transgenic male and female mice on B6.SJL1-Gur/J background were used (Jackson Laboratory).
(§2) Animals were housed in groups of 3-5 in polypropylene cages (30×40×15 cm) with wire mesh top in a temperature (22±2° C.) and humidity (55±15%) controlled environment on a 12 hour light cycle (07.00-19.00 h lights on), except after surgeries when animal were housed individually. […]
(§3) Transgenic mice on B6.SJL1-Gur/J background overexpressing the human mutated gene G93A SOD1 were used. […] F1 pups were genotyped after ear punching at weaning, using quantitative PCR (qPCR), which allowed determining the number of SOD1 copies in each mouse.
(§4) To test for the potential therapeutic effect of the administered compound, SOD1 mice were given orally the compound of the invention (10 mg/kg) or vehicle every day from post-natal day 30 (weaning) throughout their entire life. […] Each mouse's weight was recorded every day throughout the entire treatment, while neuromuscular function was measured once a week. […]

[2] = test system: primary astrocytes; assay: MTT mitochondrial activity assay in astrocytes; format: cell-based, mouse; settings: 24 h, maximum concentration (200 μM)
Protocol: Primary cultures of cerebrocortical astrocytes were obtained from 1 to 2-day-old OF1 mouse pups (Charles River). Briefly, cortices were isolated and minced in small pieces under a dissecting microscope. The cells were incubated for 30 min at 37° C. in a solution containing 20 U/ml papain, 1 mM L-cysteine and 10 kU/ml DNase I. After dissociation, papain activity was stopped by the addition of fetal calf serum (FCS). Single-cell suspension was then obtained by mechanical dissociation, which consisted in cells trituration in a DMEM D7777 medium supplemented with 44 mm NaHCO3, 10 ml/L antibiotic/antimycotic solution and 10% FCS. The cells were seeded at an average density of 6×10^4 cells/cm^2 on poly-D-lysine-coated 96- or 12-well culture plates, depending on their use, and grown in DMEM D7777 medium supplemented with 44 mm NaHCO3, 10 ml/L antibiotic/antimycotic solution and 10% FCS at 37° C. in a humidified atmosphere containing 5% CO2/95% air. Culture medium was renewed twice a week. Cells were stimulated and harvested between DIV14 and DIV17, when confluence and cell growth were optimal.
To monitor mitochondrial activity in astrocytes, which is linked to the metabolic process of glycolysis and production of lactate, astrocytes in 96-well plates were stimulated for 24 h (37° C. 5% CO2/95% air) with the compounds of the invention ranging from 0.2 to 200 μM. After stimulation, 5 mg/ml thiazol blue tetrazolium bromide (MTT) in D5030 medium complemented with 5 mM D-glucose and 44 mM sodium bicarbonate (pH 7.2) was added to each well, and cells were incubated for 4 h at 37° C. (5% CO2). The medium was then removed and the amount of reduced MTT, i.e formazan, solubilized in DMSO (50 μl/well) was determined using a spectrophotometer (absorbance of 570 nm).
The mitochondrial activity in primary astrocytes treated with Compounds (2) to (4) at concentrations ranging from 1 nM to 200 μM. After 24 h, mitochondrial activity was monitored in MTT colorimetric assay as described above (FIG. 3).

[3] = test system: primary astrocytes; assay: Intracellular glycogen quantification in astrocytes; format: cell-based, mouse; settings: 10 μM, 3 h, vs vehicle
Protocol: (§5) Primary cultures of cerebrocortical astrocytes were obtained from 1 to 2-day-old OF1 mouse pups (Charles River). Briefly, cortices were isolated and minced in small pieces under a dissecting microscope. The cells were incubated for 30 min at 37° C. in a solution containing 20 U/ml papain, 1 mM L-cysteine and 10 kU/ml DNase I. After dissociation, papain activity was stopped by the addition of fetal calf serum (FCS). Single-cell suspension was then obtained by mechanical dissociation, which consisted in cells trituration in a DMEM D7777 medium supplemented with 44 mm NaHCO3, 10 ml/L antibiotic/antimycotic solution and 10% FCS. […]
Astrocytes grown on 12-well plates were used for intracellular glycogen quantifications. […]
First, the amount of proteins in each sample was quantified to assess whether harvested astrocytes from primary cell cultures yielded enough and equivalent amounts of proteins on each replicates. Proteins were quantified using the micro BCA Protein Assay kit (Thermo Scientific), according to manufacturer's instructions. Next, intracellular glycogen concentrations were quantified using a 250 μl-aliquot of the same stimulated, thawed, and sonicated cell lysate. […] Fluorescence intensity (340 nm excitation/440 nm emission) was measured using a Safire 2 spectrophotometer. […]

[4] = test system: G93A SOD1 mouse model of ALS; assay: SOD1 G93A mouse ALS model - survival; format: in vivo; settings: 10 mg/kg orally every day from post-natal day 30 to final stage, G93A SOD1 mice, vs vehicle
Protocol: as §1, §2, §3, §4

[5] = test system: primary cultures of cerebrocortical astrocytes; assay: Extracellular lactate quantification (lactate release from primary astrocytes); format: cell-based; settings: primary mouse astrocytes, 90 min
Protocol: as §5
Secretion of L-lactate was measured in the extracellular medium of 96-well plated astrocytes after 90 min stimulation (at 37° C., in 5% CO2/95% air conditions) with Vehicle (DMSO), the compounds of the invention (100 nM to 100 μM) or positive control. […] To quantify lactate concentrations in the extracellular medium, 200 μl of a 0.2M Glycine-semicarbazide buffer (pH 10) containing 3 mM NAD and 14 U/ml LDH was added to each well of a 96-well plate containing 30 μl aliquots of extracellular medium. […] Fluorescence intensity (340 nm excitation/450 nm emission), which represents the amount of NADH produced, was measured, and lactate concentration values were determined relative to a standard curve of L-lactate concentrations. […]

[6] = test system: C57Bl/6 wild-type mice; assay: Long-term memory test - inhibitory avoidance (IA); format: in vivo, mouse; settings: 100 mg/kg oral single dose 20 min before training
Protocol: as §1
Animals were housed in groups of 3-5 in polypropylene cages (30×40×15 cm) with wire mesh top in a temperature (22±2° C.) and humidity (55±15%) controlled environment on a 12 hour light cycle (07.00-19.00 h lights on), except after surgeries when animal were housed individually. The samples (Vehicle or compounds of the invention) were administered per os (gavage) in a solution made of water supplemented with 0.4% hydroxypropyl methylcellulose (HPMC) Methocel 4KM (w/v) and 0.25% Tween-20 (v/v), as previously described (Thackaberry et al., 2010, Toxicol Sci., 117(2):485-92). Concentrations of the compounds tested ranged from 10 to 100 mg/kg.
IA test is a well-established memory paradigm in rodents that measures contextual memory associated with a mild electrical footshock in a specific context (the dark compartment of the IA chamber). Groups of 8-week old C57Bl/6 wild-type […] mice were tested. Each mouse was handled for 5 minutes per day for at least 4 consecutive days to reduce animal's stress due to experimenter's presence/manipulation during test days. Inhibitory avoidance was carried out in an IA chamber (MedAssociates) that consists in a rectangular Perspex box divided into a safe and a shock compartment separated by an automatically operated sliding door. The safe compartment is white and illuminated while the shock compartment is black and dark. Mice were trained for IA 20 min after oral administration of the drug or vehicle. During training, mice were placed into the safe compartment with their heads facing away from the door. […] Memory retention was measured at 24 h or 3 weeks after training by placing the mouse back into the lit compartment and recording its latency (in seconds) to enter the dark compartment. […]

[7] = test system: cerebral extracellular levels of lactate; assay: In vivo pharmacodynamics - lactate biosensors; set-up: species or system mouse; settings: 3 h recording, freely moving mice, vs vehicle
Protocol: as §1, §2
Cerebral extracellular levels of lactate were monitored in vivo using lactate biosensors (Pinnacle Technology), according to the manufacturer's instructions. […] After surgery, mice were monitored closely and received analgesic treatment for at least 4 days. […] Concentrations of cerebral extracellular lactate were calculated from lactate probe electric signals using post-calibration values. […] Area Under the Curve (AUC) of lactate concentration curves were calculated using Graphad Prism and the ratio of AUC after drug over Vehicle administration was calculated.

## COc1cc2ccnc(Nc3ccc(OC(F)(F)F)cc3)c2cc1OC [Compound 1, 6,7-dimethoxy-N-(4-(trifluoromethoxy)phenyl)isoquinolin-1-amine]
[1]; 10 mg/kg orally every day from post-natal day 30, G93A SOD1 mice
  Onset of symptoms (grip test): delayed the onset of the symptoms
[1]; 10 mg/kg orally every day from post-natal day 30, measured weekly until 16 weeks of age
  Muscle function (grip test): remained significantly improved
[2]
  Remaining mitochondrial activity at maximum concentration compared to vehicle: 8.05%
[3]
  Degradation of intracellular glycogen: significantly enhances the degradation of intracellular glycogen
[4]
  Life span (Kaplan-Meier survival): significantly increased life span
[5]
  Concentration at which the effect on lactate release is already significant: below 1 μM
[6]
  Latency to enter the dark compartment at training: same latencies at training
[6]; vs vehicle
  Latency to enter the dark compartment, 3 weeks after training: significantly higher
  Latency to enter the dark compartment, 24 h after training: significantly higher
[7]; 10 mg/kg per os
  Extracellular lactate levels in the brain: significantly increases extracellular lactate levels
[7]; 100 mg/kg per os
  Extracellular lactate levels in the brain: significantly increases extracellular lactate levels

## COc1cc2ccnc(Nc3ccc(C(F)(F)F)cc3)c2cc1OC [Compound 2, 6,7-dimethoxy-N-(4-(trifluoromethyl)phenyl)isoquinolin-1-amine]
[2]
  Remaining mitochondrial activity at maximum concentration compared to vehicle: 7.86%

## FC(F)(F)Oc1ccc(Nc2nccc3ccccc23)cc1 [Compound 3, N-(4-(trifluoromethoxy)phenyl)isoquinolin-1-amine]
[2]
  Remaining mitochondrial activity at maximum concentration compared to vehicle: 35.9%

## COc1cc2ccnc(Cc3ccc(OC(F)(F)F)cc3)c2cc1OC [Compound 4, 6,7-dimethoxy-1-(4-(trifluoromethoxy)benzyl)isoquinoline]
[2]
  Remaining mitochondrial activity at maximum concentration compared to vehicle: 77.3%
